Laboratory results: US8906864B2, “Binding domains of proteins of the repulsive guidance molecule (RGM) protein family and functional fragments thereof, and their use” (AbbVie Deutschland GmbH & Co. KG, priority 2005, dated 2014)
Entries after “also recorded” stand apart in the source; their conditions may differ. Where no end group is shown, it is not given here.

Tests used:
Format in all cases: cell-based
human Ntera nerve cells = assay: NTera nerve fiber growth assay (assay method 2); settings: for activity of RGM A peptides in NTera growth assay: FIG. 6A and 6B; for activity in NTera nerve fiber growth assay: peptide concentration 10 μg/ml (FIG. 6B); for inhibition of nerve fiber growth of human NTera cells: peptide concentration 30 μg/ml (higher concentration)
Method: The human pluripotent carcinoma cell line Ntera (DSMZ ACC527) is an established cell culture model. In this case, axons grow out of cell aggregates and form a corona of axons around the respective aggregate.
For this purpose, 2.5×10^6 Ntera cells were seeded in a 175 cm^2 bottle and differentiated in 10 μM retinoic acid (Sigma) (medium: D-MEM (Gibco/Invitrogen 31966-021), 10% fetal calf serum, 100 u/ml penicillin, 100 μg/ml streptomycin (both Gibco/Invitrogen)) for 3 weeks. Differentiated cells were then divided 1:6 in new bottles and cultured without retinoic acid for a further 2 days. Neuronal cells adhering to the resulting cell lawn were detached by capping and aggregated by slow shaking in Neurobasal medium (Neurobasal Medium (Gibco/Invitrogen 21103-049), 2 mM L-glutamine (Gibco/Invitrogen 25030-024), 100 u/ml penicillin, 100 μg/ml streptomycin (both Gibco/Invitrogen) in a shaken flask overnight (in an incubator).
The next day, Ntera aggregates were seeded in poly-D-lysine and laminin (Sigma) (10 μg/ml) 96-well plates (Biocoat Poly-D-Lysine Cellware 96-Well Black/Clear Plate (Becton Dickinson #35 6640). The inhibitory effect of RGM peptides and fragments was analyzed by adding various concentrations of the substances to be tested.

rat cortical neurons = assay: Neuronal outgrowth test with rat cortical neurons (assay method 1)
Method: The effect of RGM peptides in vitro was investigated by carrying out neuronal outgrowth tests. For this purpose, rat cortical neurons were prepared using the following media:
Cortical neurons were obtained by sacrificing pregnant rats by cervical dislocation, opening the abdominal cavity thereof, removing the uterus with the embryos (embryonic day 18 (E18)) and washing in PBS. Microdissection scissors were used to cut open the uterus longitudinally, and the embryos were removed and exposed. The embryos were sacrificed by throat-cutting, the brain was removed and the forebrain cortex was dissected. […] The cells were counted in a Neubauer counting chamber, and the number of cells was adjusted to about 400 000 cells/0.2 ml in MM and preaggregated. […] 24-48 h later, the axonal outgrowths were initially assessed by examination under a light microscope, and the cultures were then fixed by adding 100 μl of 4% paraformaldehyde solution and stored at 4° C. for at least 12 hours. […] The fluorescence-labeled secondary antibody (Jackson ImmunoResearch, Cy3 conjugated Affinity Pure Donkey Anti Mouse #715-165-151) was diluted 1:500 in 1% bovine serum albumin solution in PBS, which additionally comprised 0.5 μg/ml bisbenzimide (H33258) to visualize the cell nuclei, and 50 μl of this dilution were incubated per well at room temperature for 1-2 h or at 4° C. overnight. […]

[1] = test system: Neogenin-expressing HEK293 cells; assay: Fragment analysis with neogenin-expressing HEK293 cells (semiquantitative dot-blot of producing clones); settings: stably transfected HEK293 clones
Text: It was previously known that the active, growth-inhibiting activity of the RGM A protein from chickens is located in the region between amino acid position 150 and 350.
Fragments of the human RGM A protein which cover this range were therefore prepared. HEK293 cells which carry the RGM receptor endogenously on their surface were then transfected with these fragments in order to prepare clonal cell cultures which produce the individual protein fragments and release them into the culture medium. All the fragments were produced as fusion proteins with attached alkaline phosphatase enzyme. The presence of the active domain in these cells should make itself noticeable by: less cellular proliferation, increased cell death and/or altered cell-substrate adhesion.
Increased cell death and less proliferation have, of course, a direct effect on the produced amount of the active fragment. The amount of the produced fragments was assessed with the aid of a semiquantitative dot-blot assay.
The RGM A fragments prepared as in preparation example 1 were introduced into HEK293 cells. […]
In addition, the ratio of strongly to non-producing clones was determined.

Substance | activity of RGM A peptides in NTera growth assay (human Ntera nerve cells; overall result) | activity in NTera nerve fiber growth assay (human Ntera nerve cells) | inhibition of nerve fiber growth of human NTera cells (human Ntera nerve cells) | further results
Peptide 6-Ak: RGM A peptide 300-316, VVNAVEDWDSQGLYLC (SEQ ID NO: 28) | Inactive or only weakly active | inactive | distinct trend in the direction of inhibition of nerve fiber growth; also recorded: tendency to inhibit growth | 
Peptide 4: synthetic RGM A peptide AA 378-400 of SEQ ID NO: 2 (CVFDLLTTGDVNFTLAAYYALED; listed as Homo sapiens) |  |  | not | activity on nerve fiber growth of cortical neurons (axon growth index) (rat cortical neurons; concentrations 0 to 30 μg/ml (FIG. 3C)): no activity; influence on nerve fiber growth of rat neuronal cells (rat cortical neurons; peptide concentration 10 μg/ml, fluorescence micrographs (FIG. 3A)): inactive
Peptide Up-1: RGM A peptide 276-291, YIGTTIVVRQVGRYLT (SEQ ID NO: 27) | large reduction in nerve fiber growth |  | inhibited nerve fiber growth highly significantly | 
Peptide 5-Ak: RGM A peptide 242-259, AFVDGSKNGGDKHGANSL (SEQ ID NO: 30) | Inactive or only weakly active | inactive |  | 
Fragment 5: human RGM A fragment amino acids 369-422, expressed in HEK293 as AP fusion protein (PVEDLYYQACVFDLLTTGDVNFTLAAYYALEDVKMLHSNKDKLHLYERTRDLPG; also: alkaline phosphatase fusion; UniProt Q96B86 369-422, looked up, fragment) |  |  |  | activity (inhibitory for axon growth) of RGM A fragments in NTera outgrowth assay (human Ntera nerve cells; stated concentrations (FIG. 5B), overall result): inactive; Proportion of strongly producing cell clones [1]: 16%; Ratio "S producer" versus "0 producer" ([1]; low value = active fragment): 0.63
Peptide Down-1: RGM A peptide 260-275, KITEKVSGQHVEIQAK (SEQ ID NO: 26) | large reduction in nerve fiber growth |  | inhibited nerve fiber growth highly significantly | 
Peptide 7-Ak: RGM A peptide 217-234, TIIFKNFQECVDQKVYQA (SEQ ID NO: 29) | Inactive or only weakly active | inactive | distinct trend in the direction of inhibition of nerve fiber growth; also recorded: tendency to inhibit growth | 
